From the supplement of paper PMC10307832

Tests used:
Assay in all cases: relative viability (nuclei count vs DMSO), 5 days (fraction); higher = more cells survive
Lapatinib + Vorinostat = compound: CS(=O)(=O)CCNCc1ccc(-c2ccc3ncnc(Nc4ccc(OCc5cccc(F)c5)c(Cl)c4)c3c2)o1 [Lapatinib] + O=C(CCCCCCC(=O)Nc1ccccc1)NO [Vorinostat] (partner 1 µM)
In short: (§1)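 One day after seeding in 1536-well plates, lung cancer cell lines were dosed by pin tool. Dosing was either single-drug or a fixed anchor-drug dose plus five library-drug doses (not always all listed) in √10 steps. After 5 days, nuclei were stained in one fix-and-stain step and counted on 4× images, and relative viability is the nuclei count of treated wells over that of vehicle wells, given as the median of duplicate plates.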

Wnt-C59 + Tozasertib = compound: CC1=NC=CC(=C1)C2=CC=C(C=C2)CC(=O)NC3=CC=C(C=C3)C4=CN=CC=C4 [Wnt-C59] + Cc1cc(Nc2cc(N3CCN(C)CC3)nc(Sc3ccc(NC(=O)C4CC4)cc3)n2)n[nH]1 [Tozasertib] (partner 0.1 µM)
In short: as §1

Wnt-C59 + Palbociclib = compound: CC1=NC=CC(=C1)C2=CC=C(C=C2)CC(=O)NC3=CC=C(C=C3)C4=CN=CC=C4 [Wnt-C59] + CC(=O)c1c(C)c2cnc(Nc3ccc(N4CCNCC4)cn3)nc2n(C2CCCC2)c1=O [Palbociclib] (partner 0.5 µM)
In short: as §1

Lapatinib + Pemetrexed = compound: CS(=O)(=O)CCNCc1ccc(-c2ccc3ncnc(Nc4ccc(OCc5cccc(F)c5)c(Cl)c4)c3c2)o1 [Lapatinib] + Nc1nc2[nH]cc(CCc3ccc(C(=O)N[C@@H](CCC(=O)O)C(=O)O)cc3)c2c(=O)[nH]1 [Pemetrexed] (partner 0.2 µM)
In short: as §1

Cell Line	relative viability (Lapatinib + Vorinostat; first compound 0.06325 µM)	relative viability (Lapatinib + Vorinostat; first compound 0.2 µM)	relative viability (Lapatinib + Vorinostat; first compound 0.6325 µM)	relative viability (Lapatinib + Vorinostat; first compound 2 µM)	relative viability (Wnt-C59 + Tozasertib; first compound 0.001 µM)	relative viability (Wnt-C59 + Tozasertib; first compound 0.01 µM)	relative viability (Wnt-C59 + Tozasertib; first compound 0.03162 µM)	relative viability (Wnt-C59 + Tozasertib; first compound 0.1 µM)	relative viability (Wnt-C59 + Palbociclib; first compound 0.001 µM)	relative viability (Wnt-C59 + Palbociclib; first compound 0.01 µM)	relative viability (Wnt-C59 + Palbociclib; first compound 0.03162 µM)	relative viability (Wnt-C59 + Palbociclib; first compound 0.1 µM)	relative viability (Lapatinib + Pemetrexed; first compound 0.06325 µM)	relative viability (Lapatinib + Pemetrexed; first compound 0.2 µM)	relative viability (Lapatinib + Pemetrexed; first compound 0.6325 µM)	relative viability (Lapatinib + Pemetrexed; first compound 2 µM)	relative viability (Lapatinib + Vorinostat; first compound 0.02 µM)	relative viability (Lapatinib + Pemetrexed; first compound 0.02 µM)
NCI-H2023	0.402	0.603	0.612	0.552	0.406	0.332	0.352	0.356	0.389	0.4	0.399	0.371	0.182	0.233	0.193	0.186		
HOP-62	0.631	0.639	0.678	0.655	0.349	0.363	0.394	0.314	0.468	0.403	0.49	0.493	0.318	0.299	0.365	0.389		
NCI-H2009	0.74	0.894	0.693	0.679	0.805	0.798	0.72	0.726	0.231	0.149	0.198	0.239	1.02	1.05	0.98	0.998	0.733	0.972
NCI-H1915	0.494	0.554	0.489	0.473	0.471	0.404	0.508	0.457	0.516	0.521	0.473	0.572	0.457	0.456	0.465	0.473		
NCI-H650	0.38	0.434	0.577	0.538	0.734	0.748	0.802	0.729	0.276	0.344	0.302	0.323	0.881	0.913	1.08	0.963		
